Converted amounts (≈) assume the structure as drawn.
Legend:
[1] = system: Plasmodium falciparum; experiment: Antimalarial activity against chloroquine-resistant Plasmodium falciparum K1 after 24 hrs by hypoxanthine incorporation assay; type: functional, organism-based; conditions: K1, 24 h
[2] = system: Plasmodium falciparum; experiment: Antimalarial activity against chloroquine-sensitive Plasmodium falciparum NF54 after 24 hrs by hypoxanthine incorporation assay; type: functional, organism-based; conditions: NF54, 24 h
[3] = Partition coefficient, log D of the compound at pH 7.4 by phase gradient HPLC analysis; type: physicochemical; conditions: octanol/water
[4] = Kinetic solubility of the compound in phosphate buffer after 30 mins by nephelometry at pH 6.5; type: physicochemical; conditions: read-out: Kinetic_solubility
[5] = Plasma protein binding in human by reverse phase gradient HPLC analysis; type: ADME, cell-free; conditions: read-out: PPB (converted)
[6] = Half life in human liver microsomes at 1 uM; type: ADME, Microsome
[7] = Intrinsic clearance in human liver microsomes at 1 uM up to 60 mins; type: ADME, Microsome; conditions: read-out: CLH
[8] = system: Plasmodium berghei; experiment: Antimalarial activity against Plasmodium berghei ANKA expressing GFP infected in Sprague-Dawley rat assessed as reduction in parasitemia at 50 mg/kg, po administered as 4 doses measured on day 4 post-infection by flow cytometry; type: functional; set-up: scale not given: the % may be the effect or the level left
[9] = system: Plasmodium berghei; experiment: Antimalarial activity against Plasmodium berghei ANKA expressing GFP infected in Sprague-Dawley rat assessed as mean survival days of host at 50 mg/kg, po administered as 4 doses; type: functional
[10] = system: Plasmodium berghei; experiment: Antimalarial activity against Plasmodium berghei ANKA expressing GFP infected in Sprague-Dawley rat assessed as reduction in parasitemia at 100 mg/kg, po administered as single dose measured on day 3 post-infection by flow cytometry; type: functional; set-up: scale not given: the % may be the effect or the level left
[11] = system: Plasmodium berghei; experiment: Antimalarial activity against Plasmodium berghei ANKA expressing GFP infected in Sprague-Dawley rat assessed as mean survival days of host at 100 mg/kg, po administered as single dose; type: functional
[12] = system: Plasmodium berghei; experiment: Antimalarial activity against Plasmodium berghei ANKA expressing GFP infected in Sprague-Dawley rat assessed as reduction in parasitemia at 30 mg/kg, po administered as single dose measured on day 3 post-infection by flow cytometry; type: functional; set-up: scale not given: the % may be the effect or the level left
[13] = system: Plasmodium berghei; experiment: Antimalarial activity against Plasmodium berghei ANKA expressing GFP infected in Sprague-Dawley rat assessed as mean survival days of host at 30 mg/kg, po administered as single dose; type: functional
[14] = system: Plasmodium falciparum; experiment: Antimalarial activity against ring stage Plasmodium falciparum Dd2 at 1.82 uM after 72 hrs by DAPI-staining based confocal microscopy; type: functional
[15] = system: Plasmodium falciparum; experiment: Antimalarial activity against ring stage Plasmodium falciparum 3D7 at 1.82 uM after 72 hrs by DAPI-staining based confocal microscopy; type: functional
[16] = system: Plasmodium berghei; experiment: Antimalarial activity against Plasmodium berghei ANKA expressing GFP infected in Sprague-Dawley rat assessed as reduction in parasitemia at 10 mg/kg, po administered as single dose measured on day 3 post-infection by flow cytometry; type: functional; set-up: scale not given: the % may be the effect or the level left
[17] = system: Plasmodium berghei; experiment: Antimalarial activity against Plasmodium berghei ANKA expressing GFP infected in Sprague-Dawley rat assessed as mean survival days of host at 10 mg/kg, po administered as single dose; type: functional
[18] = system: Plasmodium berghei; experiment: Antimalarial activity against Plasmodium berghei ANKA expressing GFP infected in Sprague-Dawley rat assessed as reduction in parasitemia at 3 mg/kg, po administered as single dose measured on day 3 post-infection by flow cytometry; type: functional; set-up: scale not given: the % may be the effect or the level left
[19] = system: Plasmodium berghei; experiment: Antimalarial activity against Plasmodium berghei ANKA expressing GFP infected in Sprague-Dawley rat assessed as mean survival days of host at 3 mg/kg, po administered as single dose; type: functional

Structure (SMILES)	IC50 [1] [nM]	IC50 [2] [nM]	chromatographic logD [3]	solubility kinetic at 0.5 h [4] [µg/mL]	half-life at 1 µM [6] [h]	microsomal CLint at 1 µM [7] [µL/min/mg]	also measured
CS(=O)(=O)c1ccc(-c2cnc(N)c(-c3cccnc3)c2)cc1	818	575	–	–	–	–	–
CS(=O)(=O)c1ccc(-c2cnc(N)c(-c3ccc(N4CCOCC4)cc3)c2)cc1	2400	2460	–	–	–	–	–
Cc1ccc(-c2cc(-c3ccc(S(C)(=O)=O)cc3)cnc2N)c2cccnc12	33	36	2.6	6.3 (≈ 16.2 µM)	1.77	16	fraction unbound [5]: 0.056
CS(=O)(=O)c1ccc(-c2cnc(N)c(-c3ccc(C#N)cc3)c2)cc1	150	160	2.4	1.6 (≈ 4.58 µM)	> 5.83	< 5	Activity [8]: 99.7%; MSD [9]: >30 days; Activity [10]: >99.4%; MSD [11]: 14 days; Activity [12]: 99.1%; MSD [13]: 10 days
COc1ncc(-c2cc(-c3ccc(S(C)(=O)=O)cc3)cnc2N)cc1Cl	2130	2230	–	–	–	–	–
CS(=O)(=O)c1ccc(-c2cnc(N)c(-c3cnc(N)nc3)c2)cc1	120	120	–	–	–	–	–
CNC(=O)c1ccc(-c2cc(-c3ccc(S(C)(=O)=O)cc3)cnc2N)cc1	71	79	1.7	25 (≈ 65.5 µM)	> 5.83	< 5	Activity [8]: 99.7%; fraction unbound [5]: 0.182; MSD [9]: 9 days; Activity [10]: 98%; MSD [11]: 6 days; Activity [12]: 77%; MSD [13]: 7 days
CS(=O)(=O)c1ccc(-c2cnc(N)c(-c3cccc(C(=O)NCCO)c3)c2)cc1	634	603	–	–	–	–	–
CS(=O)(=O)c1ccc(-c2cnc(N)c(-c3ccc(CO)nc3)c2)cc1	169	171	1.2	25 (≈ 70.3 µM)	> 4.17	< 7	fraction unbound [5]: 0.541
CS(=O)(=O)c1ccc(-c2cnc(N)c(-c3ccoc3)c2)cc1	1120	1130	–	–	–	–	–
CS(=O)(=O)c1ccc(-c2cnc(N)c(-c3ccc(C(F)(F)F)cc3Cl)c2)cc1	818	806	–	–	–	–	–
CS(=O)(=O)c1ccc(-c2cnc(N)c(-c3ccc(OCCN4CCCC4)cc3)c2)cc1	2160	2070	–	–	–	–	–
CS(=O)(=O)c1ccc(-c2cnc(N)c(-c3cccc(OC(F)(F)F)c3)c2)cc1	180	190	–	–	–	–	–
CS(=O)(=O)c1ccc(-c2cnc(N)c(-c3ccc(C(F)(F)F)c(F)c3)c2)cc1	58	78	3.1	1.6 (≈ 3.9 µM)	2.05	14	fraction unbound [5]: 0.052
CS(=O)(=O)c1ccc(-c2cnc(N)c(-c3ccc4nccnc4c3)c2)cc1	590	620	–	–	–	–	–
COc1ccc(-c2cnc(N)c(-c3ccc(O)c(OC)c3)c2)cc1	–	–	–	–	–	–	Activity [14]: 50%; Activity [15]: 50%

Structure (SMILES)	IC50 [1] [nM]	IC50 [2] [nM]	chromatographic logD [3]	solubility kinetic at 0.5 h [4] [µg/mL]	half-life at 1 µM [6] [h]	microsomal CLint at 1 µM [7] [µL/min/mg]	also measured
Nc1ncc(-c2ccc(Cl)cc2)cc1-c1cccc(CO)c1	–	–	–	–	–	–	Activity [14]: 50%; Activity [15]: 50%
CS(=O)(=O)c1ccc(-c2cnc(N)c(-c3ccc(N4CCCC4)nc3)c2)cc1	540	456	–	–	–	–	–
CS(=O)(=O)c1ccc(-c2cnc(N)c(-c3ccc(-n4cccn4)cc3)c2)cc1	220	230	–	–	–	–	–
CS(=O)(=O)c1ccc(-c2cnc(N)c(-c3ccc4nonc4c3)c2)cc1	520	470	–	–	–	–	–
Cc1nc2cc(-c3cc(-c4ccc(S(C)(=O)=O)cc4)cnc3N)ccc2s1	330	390	–	–	–	–	–
Cc1ccc(-c2cc(-c3ccc(S(C)(=O)=O)cc3)cnc2N)cc1C(F)(F)F	19	21	3.6	1.6 (≈ 3.94 µM)	1.25	23	fraction unbound [5]: 0.031
COc1ncccc1-c1cc(-c2ccc(S(C)(=O)=O)cc2)cnc1N	1110	1230	–	–	–	–	–
CS(=O)(=O)c1ccc(-c2cnc(N)c(-c3ccc(S(C)(=O)=O)cc3)c2)cc1	80	80	2	6.3 (≈ 15.7 µM)	> 5.83	< 5	Activity [8]: 99.6%; MSD [9]: 15 days
COc1cc(-c2cc(-c3ccc(S(C)(=O)=O)cc3)cnc2N)ccc1O	49	49	1.9	6.3 (≈ 17 µM)	1.72	17	Activity [14]: >80%; Activity [15]: >80%; fraction unbound [5]: 0.172
CS(=O)(=O)c1ccc(-c2cnc(N)c(-c3ccc(F)nc3)c2)cc1	500	640	1.1	25 (≈ 72.8 µM)	4.12	< 7	fraction unbound [5]: 0.431
CS(=O)(=O)c1ccc(-c2cnc(N)c(-c3cccc(C(F)(F)F)c3)c2)cc1	90	110	3.3	3.1 (≈ 7.9 µM)	> 4.17	< 7	fraction unbound [5]: 0.059
CN(C)CCNC(=O)c1ccc(-c2cc(-c3cc(F)c(F)c(F)c3)cnc2N)cc1	–	–	–	–	–	–	Activity [14]: 50%; Activity [15]: 50%
CS(=O)(=O)c1ccc(-c2cnc(N)c(-c3ccnc(C(F)(F)F)c3)c2)cc1	155	181	–	–	–	–	–
COc1ncc(-c2cc(-c3ccc(S(C)(=O)=O)cc3)cnc2N)cn1	280	260	–	–	–	–	–
CCN(CC)CCCC(C)Nc1ccnc2cc(Cl)ccc12 (stereo unspecified) [CHLOROQUINE]	–	–	–	–	–	–	Activity [16]: 99.5%; MSD [17]: 7 days; Activity [18]: 83%; MSD [19]: 7 days; MSD [11]: 12 days; Activity [12]: 99.7%; MSD [13]: 9 days
